This is an account of results in PubChem BioAssay (NCI).

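1) Cells in 96-well plates. 2) Compound, 48 h, 5 concentrations. 3) Linear interpolation between surrounding doses. 4) Unreached endpoint = highest concentration. GI50 marks 50% less growth. Definition used: TGI = concentration required for complete inhibition of growth.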

Common to all, as to assay: inhibition of tumour cell growth, NCI panel, 48 h
The test system of experiment [1] is BT-549 breast.
The subject of experiment [2] is EKVX NSCLC.
Experiment [3] deals with K-562 leukemia.
Experiment [4] deals with MCF7 breast.
Experiment [5] relates to MOLT-4 leukemia.
Experiment [6] concerns NCI-H522 lung.
The subject of experiment [7] is NCI/ADR-RES ovarian.
Experiment [8] deals with SNB-19 CNS.
In experiment [9] the test system is SR leukemia.
Experiment [10] has as its system UO-31 renal.

Take `O=C1CC(=O)OC(c2ccc([N+](=O)[O-])cc2)O1`: the GI50 in experiment [1] is 2 µM; in experiment [2], 3.56 µM; in [3], 2.56 µM; in experiment [4], 1.59 µM; in [5], 2.66 µM; in experiment [6], 1.38 µM. Moreover, the GI50 in experiment [7] was 3.19 µM; in experiment [8] it was 3.43 µM; in experiment [9], 2.62 µM; in experiment [10], 1.64 µM. For the same molecule, the TGI in experiment [1] is 3.87 µM; in experiment [2] it was 18.3 µM; in [3], > 100 µM; in [4], 3.84 µM; in experiment [5], 8.41 µM; in experiment [6] it was 2.72 µM. Also, the TGI in [7] came to 14.1 µM; in experiment [8], 12.3 µM; in experiment [9], 9.09 µM; in experiment [10], 3.55 µM.

For `Fc1cccc(Cl)c1/C=N\N=C1c2ccccc2-c2ccccc21`, the TGI in [1], in experiment [2], in [3], in [4], in [5] and in [6] was > 100 µM each time. Besides, the TGI in [7], in [8], in experiment [9] and in experiment [10] was > 100 µM in each case.

For the molecule `O=C1CCCN1CC#CCN1CCCC1`, the GI50 in experiment [1], in [2], in experiment [3], in experiment [4], in [5] and in experiment [6] was > 100 µM throughout. For the same molecule, the GI50 in [7], in experiment [8], in [9] and in experiment [10] was > 100 µM throughout. Moreover, the TGI in experiment [1], in [2], in [3], in experiment [4], in experiment [5] and in experiment [6] was > 100 µM throughout. Further, the TGI in [7], in experiment [8], in [9] and in experiment [10] was > 100 µM each time.

With `COc1ccc(Cl)cc1Nc1nc(C(F)(F)F)ccc1C(=O)N/N=C/c1cc(OC)c(OC)c(OC)c1`, the GI50 in [1] is 1.2 µM; in experiment [2], 1.36 µM; in experiment [3] it was 2.42 µM; in experiment [4] it was 1.52 µM; in experiment [5] it was 0.642 µM; in experiment [6], 2.29 µM. Besides, the GI50 is 3.35 µM in experiment [7], 2.44 µM in experiment [8], 1.19 µM in experiment [9] and 1.24 µM in experiment [10]. Further, the TGI in experiment [1] was 3.68 µM; in experiment [2], 13.5 µM; in experiment [3], > 100 µM; in [4], 7.46 µM; in experiment [5], 2.82 µM; in experiment [6], 5.83 µM. Besides, the TGI in [7] came to 21.6 µM; in experiment [8], 19.5 µM; in [9], 4.19 µM; in [10], 3.79 µM.

For the molecule `C/C(=N\NC(N)=S)c1nc2ccc(Cl)cc2[nH]1`, the GI50 was 3.57 µM in experiment [1]; 0.966 µM in [2]; 2.37 µM in [3]; 1.64 µM in experiment [4]; 1.78 µM in experiment [5]; 1.24 µM in experiment [6]. For the same molecule, the GI50 in experiment [7] is 1.21 µM; in [8] it was 3.93 µM; in experiment [9] it was 1.29 µM; in experiment [10], 0.3 µM. Further, the TGI in experiment [1] is 14.3 µM; in experiment [2] it was 12.3 µM; in experiment [3], > 50 µM; in experiment [4], > 50 µM; in experiment [5] it was > 50 µM; in experiment [6] it was 7.9 µM. Further, the TGI in experiment [7] was > 50 µM; in experiment [8] it was > 50 µM; in experiment [9], 15.9 µM; in [10] it was 3.27 µM.

For `CC1CCN(CC(=O)N2c3ccccc3Sc3cc4ccccc4cc32)CC1`, the TGI in experiment [1], in [2], in experiment [3], in [4], in experiment [5] and in [6] was > 100 µM each time. Also, the TGI in experiment [7], in experiment [8], in experiment [9] and in experiment [10] was > 100 µM in each case.

For the molecule `O=Cc1ccc(-c2cccs2)s1`, the TGI in experiment [1] was > 100 µM; in experiment [2], > 96.6 µM; in [3], 46.4 µM; in [4], 17.6 µM; in [5], > 100 µM; in experiment [6], > 100 µM. The TGI in experiment [7], in experiment [8], in [9] and in experiment [10] was > 100 µM throughout.
